Test results reported in patent publication US20260199224A1, “Compositions comprising Sanguisorba officinalis root extract and uses thereof” (Clariant International Ltd, priority 2022, published 2026).

What was measured:
[1] = test system: Clostridium histolyticum collagenase (type IA); experiment: Anti-collagenase activity, FALGPA degradation followed by UHPLC; assay type: biochemical; settings: 25 μM; for Residual activity, ActR (%) of collagenase: 30 minutes
Procedure: FDTA-I and FDTA-II were purified from stimulated roots of Sanguisorba officinalis, where the plant has been stimulated by using a nutrient medium without nitrogen (N/P/K 0/15/40) for 1 to 3 weeks. 10 g of dried and grinded (1 mm) roots were macerated in 100 ml of ethyl acetate for 24 h at 50° C. The purified fraction of FDTA-I and FDTA-II was obtained by preparative HPLC and characterized by mass spectrometry. Ferulic acid and TA have been purchased commercially. In addition, it was also included in the test ziyuglycoside I, an active compound isolated from Sanguisorba officinalis roots known to hold various activities including increased expression of type I collagen. For the comparison, SORE was obtained as presented in example 1. The anti-collagenase inhibiting activity was measured by following the kinetics of collagenase-driven degradation of collagenase substrate: FALGPA (N-[3-(2-Furyl) acryloyl]-Leu-Gly-Pro-Ala) into FAL (N-[3-(2-Furyl) acryloyl]-Leu) and Gly-Pro-Ala.
Briefly, a volume of 100 μL of 1.5 mM solution of FALGPA in 50 mM tricine buffer with 10 mM calcium chloride and 400 mM sodium chloride, pH 7.5 (Bachem, 4006713.0025) was mixed with a volume of 10 μL of test sample or pure solvent of the test sample (positive control), followed by a volume of 10 μL of 0.05 mg/ml of Clostridium histolyticum collagenase (type IA, Sigma-Aldrich, C9891). To determine the rate of enzymatic conversion, the content of FAL was quantified at the beginning of the reaction and 30 minutes after its initialization by stopping the enzymatic conversion of FALGPA by EDTA. To quench the enzymatic conversion, a volume of 50 μL of the test sample was mixed with a volume of 50 μL of EDTA (0.2 M in water). The content of FAL in the samples was then quantified by UHPLC method optimized to separate FALGPA and FAL. The analysis was conducted using Kinetex Biphenyl reverse phase column (150 mm×2.1 mm, 2.6 μm, Phenomenex, Torrance, USA), maintained at 40° C. The mobile phase was composed of water containing 0.1% vol. of formic acid (A) and pure acetonitrile (B), delivered at 0.5 ml/min with the gradient of B phase as follows: 5-41% (0-9 min); 41-90% (9-9.05 min); hold at 90% (9.05-11.50 min); 90-5% (11.50-11.55 min), hold at 5% (11.55-14.50 min). Sample injection volume was 5 μL and FALGPA/FAL detection at 338 nm. Residual activity and the inhibition degree of collagenase in the presence of test sample X was then calculated using the following equation: […]
ActR %—residual activity; Inh %—inhibition degree; AUC—peak area of FAL; EchX tested sample; BL—blank.

[2] = test system: bovine hyaluronidase, Type IS; experiment: Anti-hyaluronidase activity, intact hyaluronic acid by BSA turbidity at 600 nm; assay type: biochemical; settings: 15 μM
Procedure: FDTA-I and FDTA-II were purified from stimulated roots of Sanguisorba officinalis as described in example 10. In addition, ziyuglycoside I was also included in the test. For the comparison, SORE was prepared as presented in example 1.
Hyaluronidase catalyzes the degradation reaction of hyaluronic acid (HA). The test is based on the quantification of intact HA content in the presence/absence of an extract of interest and/or compounds of interest. The degradation rate of HA content is proportional to enzymatic activity of hyaluronidase and inversely proportional to the inhibition power of the extract.
The reaction mixture was prepared as follows: 37.5 μL of 20 mM PHB buffer pH 7, 187.5 μL of hyaluronidase solution (bovine hyaluronidase, Type IS, Sigma) 0.02 mg/mL, and 25 μL of sample (SORE or pure FDTA-I and FDTA-II to be tested). In the case of table 13, the pure FDTA-I and FDTA-II as well as SORE were in pure propane-1,3-diol. In the case of table 14, the pure FDTA-I and FDTA-II were in 100% ethanol. The mixture was incubated for 10 minutes at room temperature and then 250 μL of HA substrate (0.3 mg/mL in phosphate buffer) are added to initiate the reaction. Incubation is done in a Thermomixer at 37° C., under agitation (450 rpm). The reaction was monitored for 60 minutes with a sampling of the reaction mix (50 μL) every 15 minutes. These samples were inserted into the wells of a microplate containing 200 μL of BSA solution 0.1% pH 3.75 and incubated in BSA for 10 minutes. The HA formed aggregates with the BSA solution which precipitates. Thus, the amount of precipitating BSA was proportional to the optical density at 600 nm which allows to monitor the enzymatic reaction. The microplate was finally inserted into the spectrophotometer and the optical density was measured at this wavelength.

[3] = mouse, in vivo; cited from earlier work
[4] = sample in pure propane-1,3-diol (table 13)
[5] = sample in 100% ethanol (table 14)

Compound | inhibition of collagenase IA (Inh %) [1] | Residual activity, ActR (%) of collagenase [1] | effect on hyaluronidase, in words ([2]; comment on table 13) | Residual activity of hyaluronidase (%) [2, 4] | effect on hyaluronidase, in words ([2]; comment on table 14) | Residual activity of hyaluronidase (%) [2, 5] | toxicity in mice [3]
COc1cc(/C=C/C(=O)O)ccc1O [Ferulic acid, ferulic acid] | do not have any effect | 96% | did not have any effect | 103% | – | – | –
C[C@@H]1CC[C@]2(C(=O)O[C@@H]3O[C@H](CO)[C@@H](O)[C@H](O)[C@H]3O)CC[C@]3(C)C(=CC[C@@H]4[C@@]5(C)CC[C@H](O[C@@H]6OC[C@H](O)[C@H](O)[C@H]6O)C(C)(C)[C@@H]5CC[C@]43C)[C@@H]2[C@]1(C)O [Ziyuglycoside I] | did not have any enzymatic inhibitory effect | 106% | – | – | did not have any effect | 107% | –
COc1cc(/C=C/C(=O)OC2C(O)CC3(C)C(CCC4(C)C3CC=C3C5C(C(=O)O)(CCC(C)C5(C)O)CCC34C)C2(C)C)ccc1O (centres unmarked) [FDTA-I, feruloylated derivative of tormentic acid] | 76% | 24% | acted as a hyaluronidase inhibitor | 9.5% | acted as hyaluronidase inhibitors | 69% | –
Oryzanol | – | – | – | – | – | – | did not demonstrate any toxicity
COc1cc(/C=C/C(=O)OC2C(O)CC3(C)C(CCC4(C)C3CC=C3C5C(C)C(C)CCC5(C(=O)O)CCC34C)C2(C)C)ccc1O (centres unmarked) [FDTA-II, feruloylated derivative of deoxy-tormentic acid] | 36% | 64% | – | – | acted as hyaluronidase inhibitors | 89% | –
C[C@@H]1CC[C@]2(C(=O)O)CC[C@]3(C)C(=CC[C@@H]4[C@@]5(C)C[C@@H](O)[C@H](O)C(C)(C)[C@@H]5CC[C@]43C)[C@@H]2[C@]1(C)O [TA, tormentic acid] | do not have any effect | 98% | did not have any effect | 98% | – | – | –
